What was measured:
[1] = molecular target: T1, recombinant BACE1 protein (Homo sapiens, UniProt P56817); assay: BACE1 biochemical FRET based assay; details: for Selectivity: BACE2 IC50 relative to BACE1 IC50; for IC50: FRET, pH 5.0, 450 min at room temperature
T1 construct: recombinant BACE1 protein in a final concentration of 0.04 μg/mL
Text: (§1) This assay is a Fluorescence Resonance Energy Transfer Assay (FRET) based assay. The substrate for this assay is an APP derived 13 amino acids peptide that contains the ‘Swedish’ Lys-Met/Asn-Leu mutation of the amyloid precursor protein (APP) beta-site secretase cleavage site. This substrate also contains two fluorophores: (7-methoxycoumarin-4-yl) acetic acid (Mca) is a fluorescent donor with excitation wavelength at 320 nm and emission at 405 nm and 2,4-dinitrophenol (Dnp) is a proprietary quencher acceptor. […] Upon cleavage by BACE1, the fluorophore Mca is separated from the quenching group Dnp, restoring the full fluorescence yield of the donor. The increase in fluorescence is linearly related to the rate of proteolysis.
Briefly in a 384-well format recombinant BACE1 protein in a final concentration of 0.04 μg/mL was incubated for 450 minutes at room temperature with 10 μm substrate in incubation buffer (final concentrations: 33.3 mM Citrate buffer pH 5.0, 0.033% PEG, 3% DMSO) in the absence or presence of compound. Next the amount of proteolysis was directly measured by fluorescence measurement at T=0′-120′ and T=450′ (excitation at 320 nm and emission at 405 nm). Results were expressed in RFU (Relative Fluorescence Units), as difference between T450 and Tx (Tx is chosen depending on the reaction speed between 0 and 120 minutes).
(§2) A best-fit curve was fitted by a minimum sum of squares method to the plot of % Controlmin versus compound concentration. From this an IC50 value (inhibitory concentration causing 50% inhibition of activity) can be obtained.

[2] = molecular target: T2, recombinant BACE2 protein (Homo sapiens, UniProt Q9Y5Z0); assay: BACE2 biochemical FRET based assay; details: pH 5.0, 450 min at room temperature
T2 construct: recombinant BACE2 protein in a final concentration of 0.4 μg/mL
T2 sequence (Q9Y5Z0 63-518): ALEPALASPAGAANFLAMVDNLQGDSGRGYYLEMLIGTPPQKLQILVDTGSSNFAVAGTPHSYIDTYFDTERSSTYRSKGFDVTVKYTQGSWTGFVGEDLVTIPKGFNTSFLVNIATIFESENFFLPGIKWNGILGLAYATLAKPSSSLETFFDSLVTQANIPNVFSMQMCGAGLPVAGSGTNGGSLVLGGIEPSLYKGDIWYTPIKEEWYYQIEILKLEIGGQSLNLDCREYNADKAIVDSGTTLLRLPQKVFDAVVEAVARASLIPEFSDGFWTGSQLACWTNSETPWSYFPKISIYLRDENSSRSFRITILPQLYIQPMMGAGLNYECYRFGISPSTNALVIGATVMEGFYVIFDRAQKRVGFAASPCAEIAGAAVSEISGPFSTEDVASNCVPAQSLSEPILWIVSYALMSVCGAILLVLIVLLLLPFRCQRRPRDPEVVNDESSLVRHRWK
Text: as §1, with “assay” for “assay is an APP derived 13 amino acids peptide that”, “beta-secretase” for “beta-site secretase”, “the beta-secretase,” for “BACE1,”
Briefly in a 384-well format recombinant BACE2 protein in a final concentration of 0.4 μg/mL was incubated for 450 minutes at room temperature with 10 μM substrate in incubation buffer (final concentrations: 33.3 mM Citrate buffer pH 5.0, 0.033% PEG, 2% DMSO) in the absence or presence of compound. Next the amount of proteolysis was directly measured by fluorescence measurement at T=0 and T=450 (excitation at 320 nm and emission at 405 nm). Results were expressed in RFU (Relative Fluorescence Units), as difference between T450 and T0.
as §2

[3] = Metabolic stability test; format: in vitro ADME; details: human liver microsomes 0.5 mg protein/mL, NADPH, 37° C.
Method: Using a commercially available pooled human liver microsomes, a compound of the present invention was reacted for a constant time, a remaining rate was calculated by comparing a reacted sample and an unreacted sample, thereby, a degree of metabolism in liver was assessed.
A reaction was performed (oxidative reaction) at 37° C. for 0 minute or 30 minutes in the presence of 1 mmol/L NADPH in 0.2 mL of a buffer (50 mmol/L Tris-HCl pH 7.4, 150 mmol/L potassium chloride, 10 mmol/L magnesium chloride) containing 0.5 mg protein/mL of human liver microsomes. After the reaction, 50 μL of the reaction solution was added to 100 μL of a methanol/acetonitrile=1/1 (v/v), mixed and centrifuged at 3000 rpm for 15 minutes. The compound of the present invention in the supernatant was quantified by LC/MS/MS or solid phase extraction (SPE)/MS, and a remaining amount of the compound of the present invention after the reaction was calculated, letting a compound amount at 0 minute reaction time to be 100%.

[4] = molecular target: T3, human ether-a-go-go related gene (hERG) channel (Homo sapiens, UniProt Q12809); assay: hERG test (whole cell patch clamp, QPatch); format: cell-based; details: CHO cells expressing hERG, tail peak current
T3 construct: expressed in transfected cells; host or cells: CHO cells
Text: For the purpose of assessing risk of an electrocardiogram QT interval prolongation, effects on delayed rectifier K+ current (IKr), which plays an important role in the ventricular repolarization process of the compound of the present invention, was studied using CHO cells expressing human ether-a-go-go related gene (hERG) channel.
A cell was retained at a membrane potential of −80 mV by whole cell patch clamp method using an automated patch clamp system (QPatch; Sophion Bioscience A/S). After application of leak potential at −50 mV, IKr induced by depolarization pulse stimulation at +20 mV for 2 seconds and, further, repolarization pulse stimulation at −50 mV for 2 seconds was recorded.
After the generated current was stabilized, extracellular solution (NaCl: 145 mmol/L, KCl: 4 mmol/L, CaCl2:2 mmol/L MgCl2:1 mmol/L, 1 mmol/L, HEPES (4-(2-hydroxyethyl)-1-piperazineethanesulfonic acid: 10 mmol/L, glucose:10 mmol/L pH=7.4) in which the compound of the present invention have been dissolved at an objective concentration was applied to the cell under the room temperature condition for 10 minutes. From the recording IKr, an absolute value of the tail peak current was measured based on the current value at the resting membrane potential using an analysis software (QPatch assay software; Sophion Bioscience A/S). Further, the % inhibition relative to the tail peak current before application of the compound of the present invention was calculated, and compared with the vehicle-applied group (0.1% dimethyl sulfoxide solution) to assess influence of the compound of the present invention on IKr.

[5] = molecular target: T4, P-gp (MDR1 expressing LLC-PK1 cells) (Homo sapiens, UniProt P08183); assay: P-gp substrate test; format: in vitro ADME; details: MDR1 expressing LLC-PK1 cells vs parent LLC-PK1 cells
T4 construct: host or cells: LLC-PK1 (porcine kidney) cells
Method: 1. MDR1 expressing LLC-PK1 cells and its parent cells were routinely cultured in Medium A (Medium 199 (Invitrogen) supplemented with 10% FBS (Invitrogen), gentamycin (0.05 mg/mL, Invitrogen) and hygromycin B (100 μg/mL, Invitrogen)) at 37° C. under 5% CO2/95% 02 gasses. For the transport experiments, these cells were seeded on Transwell (Registered trademark) insert (96-well, pore size: 0.4 μm, Coaster) at a density of 1.4×10^4 cells/insert and added Medium B (Medium 199 supplemented with 10% FBS and gentamycin at 0.05 mg/mL) to the feeder tray. These cells were incubated in a CO2 incubator (5% CO2/95% 02 gasses, 37° C.) and replace apical and basolateral culture medium every 48-72 hr after seeding. These cells were used between 4 and 6 days after seeding. 2. The medium in the culture insert seeded with MDR1 expressing cells or parent cells were removed by aspiration and rinsed by HBSS. The apical side (140 μL) or basolateral side (175 μL) was replaced with transport buffer containing reference substrates and the present invention and then an aliquot (50 μL) of transport buffer in the donor side was collected to estimate initial concentration of reference substrate and the present invention. After incubation for designed time at 37° C., an aliquot (50 μL) of transport buffer in the donor and receiver side were collected. Assay was performed by duplicate or triplicate. 3. Reference substrate and the present invention in the aliquot was quantified by LC/MS/MS.
Permeated amounts across monolayers of MDR1 expressing and parent cells were determined, and permeation coefficients (Pe) were calculated using Excel 2003 from the following equitation:
Pe (cm/sec)=Permeated amount (pmol)/area of cell membrane (cm^2)/initial concentration (nM)/incubation time (sec) Where, permeated amount was calculated from permeation concentration (nM, concentration of the receiver side) of the substance after incubation for the defined time (sec) multiplied by volume. (mL) and area of cell membrane was used 0.1433 (cm2). The efflux ratio was calculated using the following equation:
Efflux Ratio=Basolateral-to-Apical Pe/Apical-to-Basolateral Pe
The net flux was calculated using the following equation:
Net flux=Efflux Ratio in MDR1 expressing cells/Efflux Ratio in parent cells

T1 sequence (P56817 46-501): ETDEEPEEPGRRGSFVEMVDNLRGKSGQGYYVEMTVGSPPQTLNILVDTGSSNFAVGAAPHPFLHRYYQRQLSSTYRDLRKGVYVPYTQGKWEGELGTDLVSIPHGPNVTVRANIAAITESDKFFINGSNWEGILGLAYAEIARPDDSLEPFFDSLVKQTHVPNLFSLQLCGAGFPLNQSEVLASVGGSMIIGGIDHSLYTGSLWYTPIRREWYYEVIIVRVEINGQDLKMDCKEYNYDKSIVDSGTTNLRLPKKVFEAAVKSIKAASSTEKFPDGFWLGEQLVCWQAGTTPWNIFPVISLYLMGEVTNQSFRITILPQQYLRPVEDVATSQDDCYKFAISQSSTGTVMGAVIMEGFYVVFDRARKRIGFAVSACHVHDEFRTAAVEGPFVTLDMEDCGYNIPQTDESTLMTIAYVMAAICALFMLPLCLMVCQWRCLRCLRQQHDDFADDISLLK
T3 sequence (Q12809 whole entry): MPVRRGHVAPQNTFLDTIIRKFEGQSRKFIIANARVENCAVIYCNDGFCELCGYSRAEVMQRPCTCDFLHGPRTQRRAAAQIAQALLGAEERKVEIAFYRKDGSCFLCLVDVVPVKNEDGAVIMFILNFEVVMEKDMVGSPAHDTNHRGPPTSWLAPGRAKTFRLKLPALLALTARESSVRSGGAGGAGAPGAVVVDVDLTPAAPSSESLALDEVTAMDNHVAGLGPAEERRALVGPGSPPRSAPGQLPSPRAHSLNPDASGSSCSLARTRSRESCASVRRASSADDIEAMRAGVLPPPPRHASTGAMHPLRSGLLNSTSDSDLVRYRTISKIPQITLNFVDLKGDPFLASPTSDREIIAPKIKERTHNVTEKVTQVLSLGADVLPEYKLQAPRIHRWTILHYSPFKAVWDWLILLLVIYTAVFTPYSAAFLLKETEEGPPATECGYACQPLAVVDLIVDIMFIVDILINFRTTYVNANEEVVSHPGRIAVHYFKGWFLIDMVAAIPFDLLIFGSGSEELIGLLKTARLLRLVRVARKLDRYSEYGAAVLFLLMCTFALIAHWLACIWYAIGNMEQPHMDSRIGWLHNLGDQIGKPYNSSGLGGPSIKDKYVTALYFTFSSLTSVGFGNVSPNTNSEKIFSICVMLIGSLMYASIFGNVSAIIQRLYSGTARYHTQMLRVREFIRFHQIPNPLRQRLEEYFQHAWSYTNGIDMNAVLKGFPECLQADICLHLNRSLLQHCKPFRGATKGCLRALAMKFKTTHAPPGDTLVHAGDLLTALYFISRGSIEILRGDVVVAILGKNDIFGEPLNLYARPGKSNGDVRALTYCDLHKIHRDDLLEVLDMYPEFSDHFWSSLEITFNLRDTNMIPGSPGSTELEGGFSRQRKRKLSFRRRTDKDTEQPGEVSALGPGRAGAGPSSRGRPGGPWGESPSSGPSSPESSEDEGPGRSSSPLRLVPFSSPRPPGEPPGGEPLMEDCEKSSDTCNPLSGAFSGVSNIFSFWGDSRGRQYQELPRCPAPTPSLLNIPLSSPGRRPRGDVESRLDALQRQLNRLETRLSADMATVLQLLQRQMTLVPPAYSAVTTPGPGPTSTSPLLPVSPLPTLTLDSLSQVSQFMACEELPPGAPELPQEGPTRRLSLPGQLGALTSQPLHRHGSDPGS
T4 sequence (P08183 whole entry): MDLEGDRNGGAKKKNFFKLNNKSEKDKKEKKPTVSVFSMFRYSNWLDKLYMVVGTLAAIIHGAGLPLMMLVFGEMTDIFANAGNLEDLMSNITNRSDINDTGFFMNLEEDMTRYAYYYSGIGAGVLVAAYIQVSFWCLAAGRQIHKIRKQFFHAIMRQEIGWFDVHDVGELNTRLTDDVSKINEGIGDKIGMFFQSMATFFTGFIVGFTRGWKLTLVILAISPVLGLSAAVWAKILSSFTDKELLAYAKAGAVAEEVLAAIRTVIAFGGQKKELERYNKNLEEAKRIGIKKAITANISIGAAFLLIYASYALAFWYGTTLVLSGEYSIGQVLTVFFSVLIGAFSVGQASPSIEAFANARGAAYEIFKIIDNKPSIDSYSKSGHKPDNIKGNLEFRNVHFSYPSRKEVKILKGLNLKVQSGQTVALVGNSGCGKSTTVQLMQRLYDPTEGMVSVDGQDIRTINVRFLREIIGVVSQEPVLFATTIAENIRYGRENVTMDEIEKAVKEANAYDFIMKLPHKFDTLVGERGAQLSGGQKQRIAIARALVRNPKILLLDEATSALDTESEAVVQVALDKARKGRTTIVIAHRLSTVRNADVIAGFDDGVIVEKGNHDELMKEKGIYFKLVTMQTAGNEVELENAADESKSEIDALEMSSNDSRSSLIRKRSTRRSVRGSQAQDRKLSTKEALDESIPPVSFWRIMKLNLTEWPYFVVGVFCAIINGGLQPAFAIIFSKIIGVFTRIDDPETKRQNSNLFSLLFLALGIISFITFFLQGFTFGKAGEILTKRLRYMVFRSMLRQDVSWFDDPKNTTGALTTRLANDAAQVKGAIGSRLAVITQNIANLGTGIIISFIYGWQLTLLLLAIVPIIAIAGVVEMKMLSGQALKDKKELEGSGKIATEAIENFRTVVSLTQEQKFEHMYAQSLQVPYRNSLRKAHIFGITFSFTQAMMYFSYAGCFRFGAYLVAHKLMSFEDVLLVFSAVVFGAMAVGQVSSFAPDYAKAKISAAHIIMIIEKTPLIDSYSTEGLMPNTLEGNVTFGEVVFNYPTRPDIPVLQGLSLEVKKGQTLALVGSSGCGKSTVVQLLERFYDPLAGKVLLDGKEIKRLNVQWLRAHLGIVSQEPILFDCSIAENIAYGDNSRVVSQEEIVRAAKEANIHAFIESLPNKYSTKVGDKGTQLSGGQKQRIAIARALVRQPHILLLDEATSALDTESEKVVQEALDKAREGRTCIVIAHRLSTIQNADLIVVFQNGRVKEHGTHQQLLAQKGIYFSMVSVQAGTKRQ

SMILES	Selectivity [1]	IC50 [1] [nM]	IC50 [2] [nM]	Remaining rate (%) at 30 min [3] [%]	P-gp ER ratio [5]	hERG inhibition (%) at 3 μM [4] [%]
C[C@]1(c2cc(NC(=O)c3cnc(OCF)cn3)ccc2F)N=C(N)O[C@@H]2CO[C@@H](CCF)[C@@H]21 [Compound I-021]	37.1	8.51	316	–	–	–
C[C@@H]1OC[C@H]2[C@@H]1OC(N)=N[C@]2(CF)c1cc(NC(=O)c2cnc(OC(F)F)cn2)ccc1F [Compound I-087]	–	–	–	85	5.8	28.7
C[C@H]1OC[C@H]2[C@@H]1OC(N)=N[C@]2(CF)c1cc(NC(=O)c2cnc(OCF)cn2)cc(F)c1F [Compound I-070]	–	–	–	52	3.8	9.4
CC(C)C[C@@H]1OC[C@H]2OC(N)=N[C@](C)(c3cc(NC(=O)c4cnc(OC[C@@H](C)F)cn4)ccc3F)[C@@H]12 [Compound I-029]	191	22.9	4370	–	–	–
C[C@@H](F)COc1cnc(C(=O)Nc2ccc(F)c([C@@]3(C)N=C(N)O[C@@H]4CO[C@@H](C(F)(F)F)[C@@H]43)c2)cn1 [Compound I-030]	151	66.1	10000	–	–	–
NC1=N[C@](CF)(c2cc(NC(=O)c3cnc(OCF)cn3)ccc2F)[C@@H]2COCC[C@H]2O1 [II-017]	23.4	7.6	178	–	–	–
C[C@]1(c2cc(NC(=O)c3cnc(OCF)cn3)ccc2F)N=C(N)O[C@@H]2CO[C@@H](C(F)F)[C@@H]21 [Compound I-022]	27.5	24	661	–	–	–
Cc1noc(C)c1[C@@H]1OC[C@H]2OC(N)=N[C@](C)(c3cc(NC(=O)c4cnc(OCF)cn4)ccc3F)[C@H]21 [Compound I-031]	282	12	3390	–	–	–
Cn1cc([C@@H]2OC[C@H]3OC(N)=N[C@](C)(c4cc(NC(=O)c5cnc(OCF)cn5)ccc4F)[C@H]32)cn1 [Compound I-014]	223	44.7	10000	–	–	–

Second part, led by results:

Selectivity [1]	IC50 [1] [nM]	IC50 [2] [nM]	Remaining rate (%) at 30 min [3] [%]	P-gp ER ratio [5]	SMILES	hERG inhibition (%) at 3 μM [4] [%]
62.3	5.7	355	–	–	C[C@]1(c2cc(NC(=O)c3ccc(C#N)cn3)ccc2F)N=C(N)O[C@@H]2CO[C@@H](C(F)(F)F)[C@@H]21 [Compound I-016]	–
60.2	4.07	245	–	–	C[C@]1(c2cc(NC(=O)c3cnc(OCF)cn3)ccc2F)N=C(N)O[C@@H]2CO[C@@H](CC(F)F)[C@@H]21 [Compound I-019]	–
38.1	1.2	45.7	–	–	C[C@]1(c2cc(NC(=O)c3ccc(C#N)cn3)ccc2F)N=C(N)O[C@@H]2CO[C@@H](CC(F)F)[C@@H]21 [Compound I-018]	–
21.4	2.19	46.8	–	–	C[C@]1(c2cc(NC(=O)c3ccc(C#N)cn3)ccc2F)N=C(N)O[C@@H]2CO[C@@H](CCF)[C@@H]21 [Compound I-020]	–
51.2	4.79	245	–	–	CC[C@@H]1OC[C@H]2OC(N)=N[C@](C)(c3cc(NC(=O)c4cnc(OCF)cn4)ccc3F)[C@@H]12 [Compound I-023]	–
87.1	6.76	589	–	–	CC(C)C[C@@H]1OC[C@H]2OC(N)=N[C@](C)(c3cc(NC(=O)c4cnc(OCF)cn4)ccc3F)[C@@H]12 [Compound I-028]	–
9.3	1.26	11.7	–	–	CC(C)CCC[C@@H]1OC[C@H]2OC(N)=N[C@](C)(c3cc(NC(=O)c4cnc(OCF)cn4)ccc3F)[C@@H]12 [Compound I-025]	–
63.1	5.01	316	–	–	C[C@H]1OC[C@H]2[C@@H]1OC(N)=N[C@]2(CF)c1cc(NC(=O)c2cnc(-n3cncn3)cn2)ccc1F [Compound I-051]	–

Reference: US20210261569A1, “FUSED HETEROCYCLIC DERIVATIVES HAVING SELECTIVE BACE1 INHIBITORY ACTIVITY” (Shionogi & Co., Ltd., priority 2018, published 2021)
